Test results: patent US6268385A, “Dry blend pharmaceutical formulations” (priority 2000, dated 2001)

Columns and labels:
Assay type in all cases: physicochemical
[1] = Solubility assessment as a function of HPβCD concentration
Method: Solubility studies were performed by the addition of a known mass of 5(6)-methoxy-2-[[(4-methoxy-3,5-dimethyl-2-pyridinyl)-methyl]sulfinyl]-1H- benzimidazole and/or HP CD to a given volume of solvent system. Solubilities were determined by observation, as the maximum concentration at which 5(6)-methoxy-2-[[(4-methoxy-3,5-dimethyl-2-pyridinyl)-methyl]sulfinyl]-1H- benzimidazole completely dissolved. Additionally, concentrations of 5(6)-methoxy-2-[[(4-methoxy-3,5-dimethyl-2-pyridinyl)-methyl]sulfinyl]-1H- benzimidazole and HP C D at set molar ratios were solubilized in systems of high pH (adjusted as high as 12.2, with 1N NaOH), the pH was adjusted (using 2N HCl) in a stepwise downward manner until precipitation occurred.
The solubility of 5(6)-methoxy-2-[[(4-methoxy-3,5-dimethyl-2-pyridinyl)-methyl]sulfinyl]-1H- benzimidazole was assessed as a function of HPβCD concentration in water.
The procedure according to Example 86 was repeated except that water with a borate buffer (pH of 8) was employed.
The procedure according to Example 86 was repeated except that water with a phosphate buffer (pH of 11) was employed.

[2] = FT-Raman quantitation of 5-/6-methoxy isomers in omeprazole API, partial least squares
Method: Nicolet Instruments Corp., Madison, Wis.). The present method is conducted in three steps: preparation of standards, establishing a standard curve, and analysis of samples. Typically, a minimum of 4 to 5 standards are prepared. […] In addition to the USP standard, it is necessary to use a standard which is very low in 5-methoxy isomer concentration, preferably in pure form, one which has a high concentration of 5-methoxy isomer such as in the range of about 40%, and a series of at least two other standards distributed over the range from about 5% to about 25%. To establish the standard curve, each standard is run in at least triplicate using the step and repeat sampling device operating in the continuous mode with 15 replicates for each standard preparation and 500 scans per replicate, using a resolution of 2 cm^-1, and a laser power of about 0.7 watt, under instrumental parameters set to generate an acceptable S/N. […] Using such an algorithm, the area percent of the 6-methoxy isomer of each standard having both the 5- and 6-methoxy isomer is determined. The standard deviation for each set of replicates is less than about 0.7% and the average standard deviation for the average of all runs and replicates of a given standard is less than about 0.7% or the resulting data should be investigated. […] Correlation coefficients should be at or above about 0.98 among all standards. Each API sample is then analyzed using the method similar to that described for establishing the standards, except at least triplicate preparations with at least five replicates per sample preparation, and at least 100 scans per replicate with triplicate preparations per sample. Using the above-referenced partial least squares analysis, the percent 6-methoxy isomer, and thus the percent 5-methoxy isomer is determined for each scan and the average of the 15 spectra is calculated. The standard deviation (SD) for each set of replicates is less than about 1.0%, and the average standard deviation of all runs and replicates of a given sample is less than about 1.0%. If the standard deviation is above 1.0%, the results should be investigated. High standard deviation values are an indication of variability which may be caused by small amounts of sample burning. If this is suspected, the preparation should be run again.

[3] = FT-Raman determination of 5-/6-methoxy isomers in omeprazole API, classical least squares; conditions: commercial API lots
Method: This method also used an FT-Raman spectrometer (Nicolet Nexus 670 with an FT-Raman accessory, 1064 nm laser, and a step and repeat sampling device). This method, too, is conducted in three stages: preparation of standards, establishing a standard curve, and analysis of samples. Typically a minimum of 4 to 5 standards are prepared. The present FT-Raman method for API and drug product analysis uses the same method set forth above to prepare and establish the standard curve, including preferred aspects, as the method set forth for the more quantitative API method relative to the number of preparations, replicates, and scans per replicate of each standard, resolution, sampling device, deconvolution of standard peaks, determination of peak area, and standard deviation for each set of replicates and the average of all runs and replicates of a given standard. […] In general, the method is performed by a ratio of a peak related to the 6-methoxy isomer (about 1627 cm^-1) to a suitable internal omeprazole band (about 1587 cm^-1). […] Correlation coefficients of the standard curve are at or above about 0.95 among all standards. […] Using the above-referenced corrected classical least squares analysis, the percent 6-methoxy isomer, and thus the percent 5-methoxy isomer, is determined for each scan, and the average of the 15 spectra is calculated.

[4] = commercial API lots, listed as 01
[5] = commercial API lots, listed as 02
[6] = commercial API lots, listed as 03

COc1ccc2[nH]c([S+]([O-])Cc3ncc(C)c(OC)c3C)nc2c1 (centres unmarked) [5(6)-methoxy-2-[[(4-methoxy-3,5-dimethyl-2-pyridinyl)-methyl]sulfinyl]-1H-benzimidazole]
solubility as a function of HPβCD concentration ([1]; borate buffer, pH of 8): increase linearly | solubility as a function of HPβCD concentration ([1]; phosphate buffer, pH of 11): increase linearly | solubility as a function of HPβCD concentration ([1]; water): increase linearly

COc1ccc2nc([S+]([O-])Cc3ncc(C)c(OC)c3C)[nH]c2c1 (centres unmarked) [Example 1, 6-methoxy-2-[[(4-methoxy-3,5-dimethyl-2-pyridinyl)-methyl]sulfinyl]-1H-benzimidazole]
% 5-isomer ([2]; standards): 5.875% | % 6-isomer ([2]; standards): 94.125%

COc1ccc2nc([S+]([O-])Cc3ncc(C)c(OC)c3C)[nH]c2c1 (centres unmarked) [Example 1a, 6-methoxy-2-[[(4-methoxy-3,5-dimethyl-2-pyridinyl)methyl]sulfinyl]-1H-benzimidazole]
% 5-isomer ([2]; standards): 0.000% | % 6-isomer ([2]; standards): 100.000%

COc1ccc2[nH]c([S+]([O-])Cc3ncc(C)c(OC)c3C)nc2c1 (centres unmarked) [Example 36, (5)6-methoxy-2-[[(4-methoxy-3,5-dimethyl-2-pyridinyl)-methyl]sulfinyl]-1H-benzimidazole]
% 5-isomer ([2]; standards): 16.005% | % 6-isomer ([2]; standards): 83.995%

COc1ccc2[nH]c([S+]([O-])Cc3ncc(C)c(OC)c3C)nc2c1 (centres unmarked) [Example 37, (5)6-methoxy-2-[[(4-methoxy-3,5-dimethyl-2-pyridinyl)-methyl]sulfinyl]-1H-benzimidazole]
% 5-isomer ([2]; standards): 12.246% | % 6-isomer ([2]; standards): 87.754%

COc1ccc2[nH]c([S+]([O-])Cc3ncc(C)c(OC)c3C)nc2c1 (centres unmarked) [Example 41, (5)6-methoxy-2-[[(4-methoxy-3,5-dimethyl-2-pyridinyl)-methyl]sulfinyl]-1H-benzimidazole]
% 5-isomer ([2]; standards): 16.414% | % 6-isomer ([2]; standards): 83.587%

COc1ccc2[nH]c([S+]([O-])Cc3ncc(C)c(OC)c3C)nc2c1 (centres unmarked) [Example 44, (5)6-methoxy-2-[[(4-methoxy-3,5-dimethyl-2-pyridinyl)-methyl]sulfinyl]-1H-benzimidazole]
% 5-isomer ([2]; standards): 41.258% | % 6-isomer ([2]; standards): 58.742%

COc1ccc2[nH]c([S+]([O-])Cc3ncc(C)c(OC)c3C)nc2c1 (centres unmarked) [Lot 01]
% 5-isomer [2, 4]: 7.50% | % 6-isomer [2, 4]: 92.50% | % 5-isomer ([3]; listed as 01): 6.14% | % 6-isomer ([3]; listed as 01): 93.86%

COc1ccc2[nH]c([S+]([O-])Cc3ncc(C)c(OC)c3C)nc2c1 (centres unmarked) [Lot 02]
% 5-isomer [2, 5]: 8.02% | % 6-isomer [2, 5]: 91.98% | % 5-isomer ([3]; listed as 02): 6.56% | % 6-isomer ([3]; listed as 02): 93.44%

COc1ccc2[nH]c([S+]([O-])Cc3ncc(C)c(OC)c3C)nc2c1 (centres unmarked) [Lot 03]
% 5-isomer [2, 6]: 7.61% | % 6-isomer [2, 6]: 92.39% | % 5-isomer ([3]; listed as 03): 6.40% | % 6-isomer ([3]; listed as 03): 93.60%

COc1ccc2[nH]c([S+]([O-])Cc3ncc(C)c(OC)c3C)nc2c1 (centres unmarked) [USP]
% 5-isomer ([2]; standards): 7.250% | % 6-isomer ([2]; standards): 92.750%
